Experimental data published in ChEMBL document CHEMBL1201862, “PubChem BioAssay data set” (2004).
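Method: 48-hour compound exposure of cells in 96-well plates, five concentrations, linear interpolation of endpoints. The concentration for 50% growth inhibition is given as GI50.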 Activity calls are given as the source filed them. Cut-off read from the data, not from the text of the source: active = GI50 up to about 1.1 µM and inactive = higher.

Columns and labels:
Assay in all cases: NCI anticancer screen, dose series, 48 h
[1] = test system: SNB-75
[2] = test system: BT-549
[3] = test system: COLO 205
[4] = test system: MCF7
[5] = test system: OVCAR-4
[6] = test system: SR
[7] = test system: OVCAR-3
[8] = test system: HCT-116
[9] = test system: HL-60
[10] = test system: KM12
[11] = test system: T47D
[12] = test system: RPMI-8226
[13] = test system: UACC-62
[14] = test system: EKVX
[15] = test system: OVCAR-8
[16] = test system: M14
[17] = test system: NCI-H460
[18] = test system: LOX IMVI
[19] = test system: Hs-578T

Structure (SMILES): C=C(Cl)C(Cl)(CCl)CCC(Br)C(C)(C)Br (configuration not stated)
- GI50 [1]: > 10 µM (inactive)
- GI50 [2]: > 10 µM (inactive)
- GI50 [3]: > 10 µM (inactive)
- GI50 [4]: > 10 µM (inactive)
- GI50 [5]: > 10 µM (inactive)
- GI50 [6]: > 10 µM (inactive)
- GI50 [7]: > 10 µM (inactive)
- GI50 [8]: > 10 µM (inactive)
- GI50 [9]: > 10 µM (inactive)
- GI50 [10]: > 10 µM (inactive)
- GI50 [11]: > 10 µM (inactive)
- GI50 [12]: > 10 µM (inactive)
- GI50 [13]: > 10 µM (inactive)
- GI50 [14]: > 10 µM (inactive)
- GI50 [15]: > 10 µM (inactive)
- GI50 [16]: > 10 µM (inactive)

Structure (SMILES): O=C(/C=C/c1ccc2ccccc2c1)NCc1ccc(C(=O)NCCc2ccccc2)cc1
- GI50 [1]: 41.5 µM (inactive)
- GI50 [3]: > 100 µM (inactive)
- GI50 [4]: > 100 µM (inactive)
- GI50 [5]: > 100 µM (inactive)
- GI50 [6]: > 100 µM (inactive)
- GI50 [7]: > 100 µM (inactive)
- GI50 [8]: > 100 µM (inactive)
- GI50 [9]: 43.7 µM (inactive)
- GI50 [10]: > 100 µM (inactive)
- GI50 [17]: > 100 µM (inactive)
- GI50 [11]: 65.5 µM (inactive)
- GI50 [12]: > 100 µM (inactive)
- GI50 [13]: > 100 µM (inactive)
- GI50 [15]: > 100 µM (inactive)
- GI50 [18]: > 100 µM (inactive)
- GI50 [16]: > 100 µM (inactive)

Structure (SMILES): C/C(=N\NC(=O)CC(=O)Nc1ccc(C)cc1)c1cc2ccccc2oc1=O
- GI50 [1]: 20.2 µM (inactive)
- GI50 [3]: > 100 µM (inactive)
- GI50 [7]: > 100 µM (inactive)
- GI50 [8]: > 100 µM (inactive)
- GI50 [9]: > 100 µM (inactive)
- GI50 [10]: > 100 µM (inactive)
- GI50 [17]: > 100 µM (inactive)
- GI50 [12]: > 100 µM (inactive)
- GI50 [13]: > 100 µM (inactive)
- GI50 [14]: > 100 µM (inactive)
- GI50 [15]: > 100 µM (inactive)
- GI50 [18]: > 100 µM (inactive)
- GI50 [16]: > 100 µM (inactive)

Structure (SMILES): COc1ccc(CNc2cnc3ccc(N)cc3n2)cc1OC
- GI50 [1]: 66.7 µM (inactive)
- GI50 [3]: 60 µM (inactive)
- GI50 [5]: > 100 µM (inactive)
- GI50 [6]: > 100 µM (inactive)
- GI50 [7]: > 100 µM (inactive)
- GI50 [8]: 53.8 µM (inactive)
- GI50 [9]: > 100 µM (inactive)
- GI50 [10]: > 100 µM (inactive)
- GI50 [17]: > 100 µM (inactive)
- GI50 [12]: > 100 µM (inactive)
- GI50 [14]: > 100 µM (inactive)
- GI50 [15]: > 100 µM (inactive)
- GI50 [18]: > 100 µM (inactive)
- GI50 [16]: > 100 µM (inactive)

Structure (SMILES): CN(C)c1n/c(=N/Cc2ccccn2)ss1
- GI50 [1]: > 10 µM (inactive)
- GI50 [3]: > 10 µM (inactive)
- GI50 [4]: 0.409 µM (active)
- GI50 [5]: > 7.26 µM (inactive)
- GI50 [6]: 1.93 µM (inactive)
- GI50 [7]: > 10 µM (inactive)
- GI50 [8]: 7.98 µM (inactive)
- GI50 [9]: 2.18 µM (inactive)
- GI50 [10]: > 9.57 µM (inactive)
- GI50 [17]: > 10 µM (inactive)
- GI50 [11]: > 10 µM (inactive)
- GI50 [12]: 4.48 µM (inactive)
- GI50 [13]: > 10 µM (inactive)
- GI50 [14]: > 10 µM (inactive)
- GI50 [19]: > 10 µM (inactive)
- GI50 [15]: > 5.3 µM (inactive)
- GI50 [18]: 2.51 µM (inactive)
- GI50 [16]: > 8.89 µM (inactive)

Structure (SMILES): O=c1ccn(C2OC(CO)C(O)C2[Se]c2ccccc2)c(=O)[nH]1 (configuration not stated)
- GI50 [1]: > 100 µM (inactive)
- GI50 [2]: > 100 µM (inactive)
- GI50 [3]: > 100 µM (inactive)
- GI50 [4]: > 100 µM (inactive)
- GI50 [5]: > 100 µM (inactive)
- GI50 [6]: > 100 µM (inactive)
- GI50 [7]: > 100 µM (inactive)
- GI50 [8]: > 100 µM (inactive)
- GI50 [9]: > 100 µM (inactive)
- GI50 [10]: > 100 µM (inactive)
- GI50 [17]: > 100 µM (inactive)
- GI50 [13]: 0.353 µM (active)
- GI50 [14]: > 100 µM (inactive)
- GI50 [19]: > 100 µM (inactive)
- GI50 [15]: > 100 µM (inactive)
- GI50 [18]: > 100 µM (inactive)
- GI50 [16]: > 100 µM (inactive)

Structure (SMILES): Oc1cccc(-c2cc(=S)ss2)c1
- GI50 [2]: 16.7 µM (inactive)
- GI50 [3]: 18.4 µM (inactive)
- GI50 [4]: 12.8 µM (inactive)
- GI50 [5]: 18.6 µM (inactive)
- GI50 [6]: 2.76 µM (inactive)
- GI50 [8]: 17.9 µM (inactive)
- GI50 [9]: 15 µM (inactive)
- GI50 [10]: 18.6 µM (inactive)
- GI50 [17]: 17.1 µM (inactive)
- GI50 [12]: 2.24 µM (inactive)
- GI50 [13]: 18.5 µM (inactive)
- GI50 [14]: 16.1 µM (inactive)
- GI50 [19]: 16.3 µM (inactive)
- GI50 [15]: 17.7 µM (inactive)
- GI50 [18]: 14.8 µM (inactive)
- GI50 [16]: 20.6 µM (inactive)

Structure (SMILES): Cc1ccc(S(=O)(=O)Nn2c(O)c(C#N)c(-c3ccc(Cl)cc3)c(C#N)c2=O)cc1
- GI50 [1]: > 100 µM (inactive)
- GI50 [2]: > 100 µM (inactive)
- GI50 [3]: > 100 µM (inactive)
- GI50 [4]: > 100 µM (inactive)
- GI50 [5]: > 100 µM (inactive)
- GI50 [8]: > 100 µM (inactive)
- GI50 [9]: > 100 µM (inactive)
- GI50 [10]: > 100 µM (inactive)
- GI50 [17]: > 100 µM (inactive)
- GI50 [12]: > 100 µM (inactive)
- GI50 [13]: > 100 µM (inactive)
- GI50 [14]: > 100 µM (inactive)
- GI50 [19]: 74.3 µM (inactive)
- GI50 [15]: > 100 µM (inactive)
- GI50 [18]: > 100 µM (inactive)
- GI50 [16]: > 100 µM (inactive)

Structure (SMILES): CN(C)c1ccc(/C=C2\CCCCCC2=O)cc1
- GI50 [1]: > 100 µM (inactive)
- GI50 [2]: 81.5 µM (inactive)
- GI50 [3]: > 100 µM (inactive)
- GI50 [4]: > 100 µM (inactive)
- GI50 [6]: > 100 µM (inactive)
- GI50 [7]: 71.1 µM (inactive)
- GI50 [8]: 57.3 µM (inactive)
- GI50 [9]: > 100 µM (inactive)
- GI50 [10]: > 100 µM (inactive)
- GI50 [17]: 31.6 µM (inactive)
- GI50 [11]: 38.5 µM (inactive)
- GI50 [12]: 94.4 µM (inactive)
- GI50 [13]: 90.4 µM (inactive)
- GI50 [14]: > 100 µM (inactive)
- GI50 [15]: > 100 µM (inactive)
- GI50 [16]: 79.1 µM (inactive)
